# Experimental data as given in patent US12544371B2, “Methods and compositions for treating acute lung injury and acute respiratory distress syndrome” (CalciMedica, Inc., priority 2020, dated 2026).
# Read-outs that look alike come from different tables or passages of the source.
# Columns and labels:
# human blood and plasma = assay: Hemolysis testing
# Excerpt: (§1) Hemolysis testing concluded that Compound 1 was compatible with human plasma and non-hemolytic in human blood.
# [1] = Rat model of acute pancreatitis (caerulein-induced), IV infusion; assay type: in vivo
# [2] = Mouse caerulein-induced pancreatitis model; assay type: in vivo; settings: single IP dose
# Excerpt: Potential efficacy of Compound 1 in treating acute lung injury was established in three diverse in vivo models of AP that cause both pancreatic damage and lung inflammation (TLCS-induced, FAEE-induced, and caerulein-induced acute pancreatitis models).
# [3] = Animal models of acute pancreatitis and lung injury (general statements); assay type: in vivo
# Excerpt: Preclinical data supports the use of CRAC inhibitors (e.g. N-(5-(6-Chloro-2,2-difluorobenzo[d][1,3]dioxol-5-yl)pyrazin-2-yl)-2-fluoro-6-methylbenzamide, Compound 1) in severe COVID-19 pneumonia.
# For example, Compound 1 was effective following i.p. injection in mice (Wen et al., Gastroenterol, 149: 481-492, 2015), and following 4-hour i.v. infusion in rats (Waldron et al., J Physiol, 597.12: 3085-3105, 2019).
# [4] = system: TNFα released from human PBMCs; assay: Cytokine released from human PBMCs: TNFα; assay type: cell-based
# Excerpt: (§2) CRAC channels may play a proximal role in a calcium-calcineurin pathway leading to cytokine release in immune cells.
# 3T3 = assay: In vitro 3T3 phototoxicity; assay type: cell-based
# [5] = system: IFNγ released from human PBMCs; assay: Cytokine released from human PBMCs: IFNγ; assay type: cell-based
# Excerpt: as §2
# [6] = Repeat-dose toxicity study in monkeys; settings: in vivo, monkey
# Description: as §1
# Plasma concentrations of compound rise steadily during the 4-hour infusion, with Tmax achieved at the end of infusion (4 hours). After the end of infusion, there is a rapid and prominent distribution phase followed by a prolonged period of residual drug levels. The terminal elimination phase has not yet been fully characterized as it appears to be much longer than was anticipated based on pre-clinical PK data in mouse, rat, dog and monkey. Plasma concentrations during the terminal phase are approximately 5% of Cmax values and, as indicated above, to date there have been no clinically significant AEs reported during this phase. Plasma exposures, defined by AUC0-24 h, appear to be dose-proportional and reached a maximum of 6710 ng*h/mL in Group 5, which is 4.3-fold below the mean AUC24 h in monkey at the NOAEL (29,000 ng*hr/mL).
# [7] = Phase 2 open-label study in acute pancreatitis with SIRS and hypoxemia (Compound 1 Test 201); assay type: in vivo, human
# Description: A Phase 2, open-label, dose-response, multi-center study of Compound 1 was conducted in patients with AP and accompanying SIRS and hypoxemia (Compound 1 Test 201). One patient was randomized having SIRS alone at Screening. The primary objective of the study was to evaluate safety and tolerability; the secondary objective was to evaluate efficacy and the PK profile of Compound 1.
# The study had 2 phases; the Initial Phase consisted of 2 concurrently enrolled cohorts and the Second Phase consisted of 2 concurrently enrolled cohorts. In total, it was planned to have 4 Cohorts containing 24 adult male and female patients with AP and accompanying SIRS and hypoxemia. In the Initial Phase, 4 female patients were to be randomized in a 3:1 ratio to receive Compound 1+Supportive Care (SC) or SC alone (Cohort 1). Concurrently, 4 male patients were to be randomized in a 3:1 ratio to receive Compound 1+SC or SC alone (Cohort 2). Doses were to be 1.0 mg/kg on Day 1 and 1.4 mg/kg daily on Days 2, 3 and 4 (low dose regimen). In the Second Phase, 8 female patients were to be randomized in a 3:1 ratio to receive Compound 1+SC or SC alone (Cohort 3). Concurrently, 8 male patients were to be randomized in a 3:1 ratio to receive Compound 1+SC or SC alone (Cohort 4). Planned doses for both Cohorts 3 and 4 were to be 2.08 mg/kg daily on Days 1 and 2 and 1.6 mg/kg daily on Days 3 and 4 (high dose regimen).
# The decision to start Cohort 3 in the Second Phase was made after study personnel reviewed the available efficacy, safety and tolerability data from Cohort 1 and discussed this with the Principal Investigator (PI). […] Cohort 3, therefore, received the same dose level and schedule as Cohort 1, […] on Day 1 and 1.4 mg/kg daily on Days 2, 3 and 4. The decision to start Cohort 4 in the Second Phase of the study was made after study personnel reviewed the available efficacy, safety and tolerability data from Cohort 2 and discussed this with the Principal Investigator. Cohort 4, therefore, received the original planned dose level and schedule; 2.08 mg/kg daily on Days 1 and 2 and 1.6 mg/kg daily on Days 3 and 4.
# The first infusion of Compound 1 was started within 6 (up to 8) hours of the patient or LAR providing informed consent and was administered as a continuous IV infusion over 4 hours. Subsequent infusions were to be started every 24 hours (±1 hour) from the start of the first infusion.
# [8] = system: IL-2 release by human PBMCs; assay: IL-2 release by human PBMCs, isolated cell assay; assay type: cell-based; settings: PBMC, SEM (n), read-out: Compound 1 IC50, IL-2 release by human PBMCs
# Excerpt: as §2
# [9] = In vivo micronucleus study (bone marrow micronucleus and liver Comet assays); settings: rats
smiles,measurement,setting,value
"Cc1cccc(F)c1C(=O)Nc1cnc(-c2cc3c(cc2Cl)OC(F)(F)O3)cn1 [Compound 1, N-(5-(6-Chloro-2,2-difluorobenzo[d][1,3]dioxol-5-yl)pyrazin-2-yl)-2-fluoro-6-methylbenzamide]",compatibility with human plasma,human blood and plasma,compatible
same,hemolysis in human blood,human blood and plasma,non-hemolytic
same,lung myeloperoxidase activity (neutrophil infiltration),[1],decrease
same,mRNA levels of the cytokines TNFα and IL-6 (lung),[1],decrease
same,"lung myeloperoxidase; pancreas trypsin activity, myeloperoxidase activity and histopathological indices",[2],markedly reduced
same,cytokines and neutrophil infiltration in lung tissue,[3],inhibit
same,IC50,"[4]; Homo sapiens, PBMC, mean of replicates, read-out: Mean IC50, TNFα released from human PBMCs",225 nM
same,IC50,"[4]; Homo sapiens, PBMC, single replicates, read-out: Replicate IC50 values, TNFα released from human PBMCs",278 nM
same,IC50,"[4]; single replicates, read-out: Replicate IC50 values, TNFα released from human PBMCs",173 nM
same,"phototoxicity, in vitro 3T3",3T3,potentially phototoxic
same,IC50,"[5]; Homo sapiens, PBMC, mean of replicates, read-out: Mean IC50, IFNγ released from human PBMCs",138 nM
same,IC50,"[5]; Homo sapiens, PBMC, single replicates, read-out: Replicate IC50 values, IFNγ released from human PBMCs",175 nM
same,IC50,"[5]; single replicates, read-out: Replicate IC50 values, IFNγ released from human PBMCs",102 nM
same,AUC(0-t),"[6]; NOAEL 3 mg/kg/day, read-out: mean AUC24 h in monkey at the NOAEL",29000 ng·h/mL
same,NOAEL,"[6]; repeat-dose, monkeys, read-out: no observable adverse effect level (NOAEL)",3 mg/kg/day
same,"Discharge IL-6 levels, patients with 150 pg/mL ≤ IL-6 < 1000 pg/mL","[7]; 2a High Dose Regimen + SC, admission 1",1
same,"Discharge IL-6 levels, patients with IL-6 ≥ 1000 pg/mL","[7]; 2a High Dose Regimen + SC, admission 2",0
same,"Discharge IL-6 levels, patients with IL-6 ≥ 1000 pg/mL","[7]; 2a Low Dose Regimen + SC, admission 0",0
same,"Discharge IL-6 levels, patients with 150 pg/mL ≤ IL-6 < 1000 pg/mL","[7]; 2a Low Dose Regimen + SC, admission 4",0
same,patients in whom IL-6 levels decreased to below 150 pg/mL,"[7]; Tests 201 and 202 pooled, maximum IL-6 ≥150 pg/mL in the first 24 hours",7 of 8
same,procalcitonin at discharge,[7]; first critically ill AP patient,0.24 ng/mL
same,IL-6 at 120 hrs,"[7]; first critically ill AP patient, IL-6 >7296 pg/mL at study entry",66 pg/mL
same,TEAEs with causality considered Possible (Chromaturia),[7]; high dose regimen+SC,1 TEAE
same,patients with SAEs,"[7]; high dose regimen+SC, 1 of 6",17%
same,patients with Acute Respiratory Distress Syndrome,"[7]; high dose regimen+SC, 2 of 6",33%
same,patients with Confusional State,"[7]; high dose regimen+SC, 2 of 6",33%
same,patients with Malnutrition,"[7]; high dose regimen+SC, 2 of 6",33%
same,patients with severe TEAEs,"[7]; high dose regimen+SC, 2 of 6",33%
same,patients with treatment-emergent AEs (TEAEs),"[7]; high dose regimen+SC, 5 of 6 patients",83%
same,patients with TEAEs leading to discontinuation of the study drug,"[7]; high dose regimen+SC, 3 TEAEs",2 patients
same,deaths during the study,"[7]; high dose regimen+SC, Hypoxic-Ischemic Encephalopathy, causality Unrelated",1 death
same,IL-6 levels in patients,[7]; in vivo,marked reduction
same,respiratory dysfunction in patients,[7]; in vivo,beneficial effects
same,safety in critically ill patients,"[7]; intravenous, 90 days in patients with AP, SIRS plus hypoxemia",safe
same,"changes in vital signs, oxygenation, and laboratory values",[7]; low dose or high dose regimen,no untoward changes
same,safety and tolerability,[7]; low dose regimen+SC and high dose regimen+SC,well tolerated
same,patients with severe TEAEs,"[7]; low dose regimen+SC, 0 of 8",0%
same,patients with Headache,"[7]; low dose regimen+SC, 2 of 8",25%
same,patients with Hypokalemia,"[7]; low dose regimen+SC, 2 of 8",25%
same,patients with SAEs,"[7]; low dose regimen+SC, 2 of 8",25%
same,patients with treatment-emergent AEs (TEAEs),"[7]; low dose regimen+SC, 7 of 8 patients",88%
same,procalcitonin levels versus the standard of care,[7]; phase 2a study patients,did not increase
same,procalcitonin at discharge,[7]; second critically ill AP patient,0.30 ng/mL
same,IL-6 at 120 hrs,"[7]; second critically ill AP patient, IL-6 1021 pg/mL at study entry",83 pg/mL
same,IC50,[8],10 ± 0.4 nM
same,"DNA reactivity, bone marrow micronucleus and liver Comet assays",[9],no evidence of DNA reactivity
